Assay results reported in patent US8524746B2, “Dosage regimen for COMT inhibitors” (Bial-Portela & Ca., S.A., priority 2007, dated 2013).
Where two headings read alike, the source gives them in different places.

Tests used:
[1] = test system: liver COMT; conditions: rat, 3 mg/kg oral; for inhibition of liver COMT activity nine hours after administration: 9 h
Protocol: Livers from 60 day old male Wistar rats weighing 240-260 g (Harlan-Interfauna Ibérica, Barcelona, Spain), kept two per cage under controlled environmental conditions (12 h light/dark cycle and room temperature 24° C.) were used in all experiments. After decapitation, the organs were immediately removed and homogenised in 5 mM phosphate buffer of pH 7.8. COMT activity was evaluated by the ability to methylate adrenaline to metanephrine. […] The preincubation and incubation were carried out at 37° C. under conditions of light protection with continuous shaking and without oxygenation.
In experiments designed to evaluate the oral bioavailability of test substances, compounds were given by gastric tube to overnight fasted rats. Thereafter, at defined intervals, animals were killed by decapitation and livers removed and used to determine COMT activity as described above. At the end of the incubation period (5 min) the tubes were transferred to ice and the reaction was stopped by the addition of 200 μl of 2 M perchloric acid. The samples were then centrifuged (200×g, 4 min, 4° C.), and 500 μl aliquots of the supernatant, filtered on 0.22 μm pore size Spin-X filter tubes (Costar) were used for the assay of metanephrine. The assay of metanephrine was carried out by means of high pressure liquid chromatography with electrochemical detection. The lower limits for detection of metanephrine ranged from 350 to 500 fmol (0.5 to 1.0 μmol/mg protein/h).

[2] = 3 mg/kg oral
[3] = Brain levels of L-DOPA and its derivatives in rats treated with L-DOPA plus benserazide; type: in vivo, rat; conditions: 3 mg/kg oral
[4] = L-DOPA plus benserazide, inhibitor given 24 h in advance
[5] = L-DOPA 12 mg/kg plus benserazide 3 mg/kg, all pre-treatment times (1, 7 and 24 h)

Question: For `Cc1ccc(C(=O)c2cc(O)c(O)c([N+](=O)[O-])c2)cc1` [tolcapone, 3,4-dihydroxy-4′-methyl-5-nitrobenzophenone], which “time to maximal inhibitory effect on liver COMT” value [1] is on record?
Answer: Its value is at most 30 min.

Question: What about the “inhibition of liver COMT activity nine hours after administration” value [1] of the same compound?
Answer: The value was “minimal inhibitory effects”.

Question: And the “inhibition of liver COMT activity 24 hours after administration” value [1]?
Answer: The value was “almost devoid of COMT inhibitory properties”.

Question: And the “plasma 3-O-methyl-L-DOPA” value [2, 4]?
Answer: The value was “not affected”.

Question: What about the “plasma L-DOPA” value [2, 4] of the same compound?
Answer: The value was “not affected”.

Question: And the “brain L-DOPA” value ([3]; L-DOPA plus benserazide, 2 and 7 h after administration)?
Answer: The value was “Significant changes”.

Question: What about the “brain 3-O-methyl-L-DOPA” value [3, 4] of the same compound?
Answer: Its value is “not affected”.

Question: And the “brain DOPAC” value [3, 4]?
Answer: Its value is “not affected”.

Question: And the “brain L-DOPA” value [3, 4]?
Answer: The value was “not affected”.

Question: What about the brain dopamine [3, 4] of the same compound?
Answer: Its brain dopamine is “not affected”.

Question: What does the source list for `Cc1c(Cl)c(C)[n+]([O-])c(Cl)c1-c1noc(-c2cc(O)c(O)c([N+](=O)[O-])c2)n1` [Compound A, 5-[3-(2,5-dichloro-4,6-dimethyl-1-oxy-pyridin-3-yl)-[1,2,4]oxadiazol-5-yl]-3-nitrobenzene-1,2-diol]?
Answer: time to maximal inhibitory effect on liver COMT [1]: ≤ 60 min; inhibition of liver COMT activity nine hours after administration [1]: 90 % of control levels; inhibition of liver COMT activity 24 hours after administration [1]: 60 % of controls levels; circulating (plasma) 3-O-methyl-L-DOPA [2, 5]: marked decrease; plasma L-DOPA [2, 5]: significant increases; brain 3-O-methyl-L-DOPA [3, 5]: marked decrease; brain DOPAC [3, 5]: significant increases; brain L-DOPA [3, 5]: significant increases; brain dopamine [3, 5]: significant increases
